The target in assay [1] is mAb 31E10/E7. Put plainly: Solution-equilibrium ELISA (Friguet) KD of NHBA fragment–mAb complexes. It is filed as binding, murine. To be noted: equilibrium in solution, antigen 7 to 480 nM with mAb 0.7 nM, -^§ = No interaction was detected under the tested conditions, read-out: KD ± SD (no interaction detected). From the text:
Next, we sought to directly compare, for their ability to reconstitute the epitope recognized by mAb 31E10/E7, the peptides identified by peptide scanning with the fragments previously identified by PROFILER. To this end, we selected Peptide 5 (Pep-5, spanning P95-E109; Fig 5A) and FrII (D91-A128; Fig 2A) as representatives of the two categories. First, we measured the ability of the fragments to compete with the whole antigen (NHBA-NUbp-His) for binding to mAb 31E10/E7 in the ELISA inhibition assay described above. […] To further analyze this, we measured the affinities of the NHBA fragments for mAb 31E10/E7 using an ELISA assay that can provide reliable estimates of the equilibrium dissociation constant (KD) of antigen-antibody complexes in solution [20].
KD values of complexes between mAb 31E10/E7 and NHBA fragments at equilibrium in solution were measured using the ELISA test of Friguet et al, exactly as described by Heinrich et al.. […] Under these conditions, absorbance is proportional to the concentration of free mAb 31E10/E7 added to each well. The results for each antigen were analyzed using the plot described by Friguet et al ([19]; S2 Fig), which provides a KD value for the complex in solution. Results were expressed as means and standard deviations of the 4 KD values determined for each of the 4 antigen concentrations used to coat the wells.

Assay [2] concerns mAb 31E10/E7. The assay is described as follows: Inhibition ELISA of mAb 31E10/E7 binding to NHBA-NUbp-His. Further details: species or system murine. The source says: We sought to verify whether the antigenic fragments identified by phage display analysis reacted against the 31E10/E7 mAb in a molecular context other than capsid proteins and how these binding activities compared to that of the whole antigen molecule. For this analysis, FrI and FrII were produced as GST fusion proteins and probed against the 31E10/E7 mAb in an inhibition ELISA assay. A third fragment, FrIII, encompassing residues F324-D391, was also produced in fusion with GST and used as a negative control. In the ELISA inhibition experiments, the NHBA-NUbp-His fusion protein was used as coating antigen and reactivity against 31E10/E7 was measured in the presence and in the absence of GST-FrI, GST-FrII and GST-FrIII.
The immunoreactivity of NHBA antigenic fragments against the 31E10/E7 mAb was tested using a previously described ELISA inhibition assay. Briefly, the 31E10/E7 mAb (1 μg/ml) was preincubated with micromolar concentrations of competitors (represented by the indicated NHBA fragments or by the entire antigen fused to an histidine tail) prior to the addition to microtiter wells sensitized with the whole fusion antigen (NHBA-NUbp fused to an histidine tail or NHBA-NUbp-His, 5 μg/ml). […] Percent inhibition was calculated by comparing the absorbance value of wells with and without the inhibitors.
In general terms: An ELISA detects its analyte on a solid surface through an enzyme-linked reagent.

The Kd is the equilibrium constant for the complex coming apart. For the substance TPAS, on mAb 31E10/E7 [1], the Kd was > 480 nM. Further, the “competition with the whole antigen for binding to mAb 31E10/E7” value in the assay with mAb 31E10/E7 [2] (NHBA-NUbp-His coated 5 μg/ml, mAb 1 μg/ml, Fig 3B, three independent experiments) is recorded as “but not the TPAS tetrapeptide”. For the same substance, the “binding to the mAb” value in the assay on mAb 31E10/E7 [2] (even at high concentrations (Fig 3B)) is listed as “unable to bind the mAb”.

The values are drawn from PMC4980009, “Epitope Mapping of a Monoclonal Antibody Directed against Neisserial Heparin Binding Antigen Using Next Generation Sequencing of Antigen-Specific Libraries” (PLoS ONE, 2016).
